From PubChem BioAssay AID588780 (Sanford-Burnham Center for Chemical Genomics, 2011)
Activity calls are given as the source filed them.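 How the source made its calls: active means compounds whose fitted half-maximal concentration in the cell-protection dose series is at or below a set limit; inactive means the rest.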

What follows are compounds tested on H9c2 cardiomyocytes, 2-deoxyglucose stress, ATP luminescence, 2 h (assay: H9c2 cell survival under 2-deoxyglucose stress – uHTS hits, dose response (AID 588780)).

`COc1cccc(Nc2nc(-c3sc(NC(=O)c4ccco4)nc3C)cs2)c1` was tested. Which IC50 did it give?
The IC50 was > 79 µM (inactive).

With `COc1cc(-c2nnc(COC(=O)c3cc(C)nc4ccc(C)cc34)o2)cc(OC)c1OC` as the compound, how does the IC50 read?
Its IC50 is 15.6 µM.

Which IC50 does the source give for `CCOc1ccccc1Nc1nnc(SCc2nnc(-c3cc(OC)c(OC)c(OC)c3)o2)s1` here?
The IC50 was 11.1 µM.

`Cc1cc(NC(=O)c2cccs2)cc(-c2nc3ncccc3o2)c1O` was tested. Which IC50 did it give?
Its IC50 is > 79 µM (inactive).

How did the IC50 turn out when `Cc1ccc(C(c2c(C)n(C)n(-c3ccccc3)c2=O)c2c(C)n(C)n(-c3ccccc3)c2=O)s1` was run?
Its IC50 is > 79 µM (inactive).

Which IC50 does the source give for `CCn1c(O)c(/C=N/N=C2CCCCC2)c2cc(C3=NNC(=O)CC3)ccc21` here?
Its IC50 is 12.5 µM.

`O=C(CCCSc1ccccc1)Nc1nc(-c2ccccn2)cs1` was tested. Which IC50 did it give?
Its IC50 is > 79 µM (inactive).

For `Cc1ccccc1NC(=O)COC(=O)CCc1nc2ccccc2c(=O)[nH]1`, which IC50 is on record?
The IC50 was > 79 µM (inactive).

With `c1ccc2c(c1)nc(Nc1ccc3c(c1)OCO3)c1nnnn12` as the compound, how does the IC50 read?
Its IC50 is 16.9 µM.

Which IC50 does the source give for `COc1ccccc1C(=O)COC(=O)Cn1[nH]c(=O)c2ccccc2c1=O` here?
The IC50 was > 79 µM (inactive).

Which IC50 does the source give for `CNC(=O)c1ccc(-c2sc3nc(N4CCOCC4)c4c(c3c2N)CC(C)(C)OC4)o1` here?
The IC50 was 13.2 µM.

Which IC50 does the source give for `O=C1c2ccccc2NC(c2ccc(-c3cccc([N+](=O)[O-])c3)o2)N1O` (centres undefined) here?
Its IC50 is 28.4 µM.

For `COCCNC(=O)COC(=O)c1ccc(OCC(=O)Nc2ccccc2OC)c(OC)c1`, which IC50 is on record?
The IC50 was 22.9 µM.

With `Oc1c(Br)cc(Br)cc1C=Nc1ccc2c(c1)OCCO2` as the compound, how does the IC50 read?
Its IC50 is 24.4 µM.

With `COc1ccccc1-c1cc2nc(-c3ccccc3)cc(N3CCN(C(=O)c4ccco4)CC3)n2n1` as the compound, how does the IC50 read?
The IC50 was > 79 µM (inactive).

How did the IC50 turn out when `CC(=O)Nc1cc(-c2cccc(C(=O)N(C)C)c2)cn2c(-c3ccc(C(C)=O)cc3)cnc12` was run?
The IC50 was 15.1 µM.

For `O=C(NCc1n[nH]c(=O)c2ccccc12)C1CC(=O)N(c2ccccc2)C1` (centres undefined), which IC50 is on record?
Its IC50 is 43 µM (inactive).

`CCOC(=O)Cc1csc(NC(=O)NC2(C(F)(F)F)Oc3ccccc3O2)n1` was tested. Which IC50 did it give?
The IC50 was 35.3 µM (inactive).

How did the IC50 turn out when `C1=C(c2ccccc2)CCN(c2nc3ccccc3n3cnnc23)C1` was run?
Its IC50 is 27.6 µM.

How did the IC50 turn out when `CC1CCCN(Cc2nc3c(c(=O)n(C)c(=O)n3C)n2CCCc2ccccc2)C1` (centres undefined) was run?
The IC50 was 35 µM (inactive).

How did the IC50 turn out when `N/C(=N\NS(=O)(=O)c1ccccc1)c1ccccn1` was run?
The IC50 was > 79 µM (inactive).

How did the IC50 turn out when `Cc1nnc2ccc(-c3cccc(NC(=O)c4ccc(Cl)nc4)c3)nn12` was run?
Its IC50 is 22.1 µM.

Which IC50 does the source give for `O=C(Cn1[nH]c(=O)c2ccccc2c1=O)NCC1COc2ccccc2O1` (centres undefined) here?
The IC50 was > 79 µM (inactive).

For `CC(=O)c1cccc(NC(=O)C(C)OC(=O)Cc2n[nH]c(=O)c3ccccc23)c1` (centres undefined), which IC50 is on record?
The IC50 was > 79 µM (inactive).

With `Cc1cc(C)c(C(=O)CC(=O)c2ccccc2Cl)c(O)c1` as the compound, how does the IC50 read?
The IC50 was > 79 µM (inactive).

Which IC50 does the source give for `CNC(=O)c1cccc(NC(=O)c2cc(-c3ccccc3)nc3c2cnn3C(C)C)c1` here?
Its IC50 is > 79 µM (inactive).

`O=C1Nc2cnc(Cl)nc2Nc2ccccc21` was tested. Which IC50 did it give?
The IC50 was > 79 µM (inactive).

Which IC50 does the source give for `O=C1N[C@H](Cc2ccccc2)COC(=O)[C@@H](Cc2ccc(F)cc2)C/C=C\C[C@H]1CC(=O)N(CCO)Cc1ccccc1` here?
Its IC50 is 20.5 µM.

`O=c1c(O)c(-c2cccs2)oc2ccc(Cl)cc12` was tested. Which IC50 did it give?
The IC50 was 20.6 µM.

`Cc1ccc(-c2nn3c(C)nnc3c3ccccc23)cc1S(=O)(=O)NC(C)c1ccccc1` (centres undefined) was tested. Which IC50 did it give?
Its IC50 is > 79 µM (inactive).

With `Cn1c(=O)n(CCc2ccccc2)c(=O)c2c1nc1n2CCCN1Cc1ccccc1` as the compound, how does the IC50 read?
The IC50 was 14.1 µM.

Which IC50 does the source give for `Cc1cc(C)c2ccc(NN)nc2c1O` here?
The IC50 was > 79 µM (inactive).

`O=C(Nc1nc(-c2ccc(S(=O)(=O)N3CCCC3)cc2)cs1)C1COc2ccccc2O1` (centres undefined) was tested. Which IC50 did it give?
The IC50 was > 79 µM (inactive).

Which IC50 does the source give for `Cc1cccc(-n2[nH]c(C)c(C=Nc3ccc4[nH]c(=O)[nH]c4c3)c2=O)c1` here?
The IC50 was > 79 µM (inactive).

Which IC50 does the source give for `COC(=O)Oc1ccc(/C=C/C(=O)OC(C)C)cc1OC(=O)OC` here?
Its IC50 is 63.1 µM (inactive).

For `COC(=O)c1cc(NC(=O)Nc2cc(OC)ccc2OC)cc(C(=O)OC)c1`, which IC50 is on record?
Its IC50 is 38.4 µM (inactive).

Which IC50 does the source give for `COc1ccc(-c2nnc(-c3cc(OC)c(OC)c(OC)c3)o2)cc1OC` here?
The IC50 was 14.6 µM.

With `CCCCn1nc(NC(=O)c2cccs2)c2cc3cc(OC)ccc3nc21` as the compound, how does the IC50 read?
Its IC50 is > 79 µM (inactive).

With `C#Cc1cc(N2CCN(C(=O)c3ccoc3)CC2)n2nc(-c3cccc(Cl)c3)cc2n1` as the compound, how does the IC50 read?
The IC50 was > 79 µM (inactive).

`CCN1CCN(c2nc3c(c(=O)[nH]2)CCCC3)CC1` was tested. Which IC50 did it give?
Its IC50 is > 79 µM (inactive).

With `Cn1c2ccccc2c2cc(/C=N/NC(=O)c3cc(O)ccc3O)ccc21` as the compound, how does the IC50 read?
Its IC50 is > 79 µM (inactive).

How did the IC50 turn out when `CCOC(=O)C1CCN(C(c2cc3c(C)ccc(C)c3[nH]c2=O)c2nnnn2C2CCCCC2)CC1` (centres undefined) was run?
The IC50 was > 79 µM (inactive).

Which IC50 does the source give for `Cc1cccc(OCCn2c(NC(=O)c3ccco3)nc3ccccc32)c1` here?
Its IC50 is 17.8 µM.

`Cc1ccc(OCCOC(=O)CCc2nc3ccccc3c(=O)[nH]2)cc1` was tested. Which IC50 did it give?
Its IC50 is > 79 µM (inactive).

With `Nc1cc2[nH]c(=O)c3ccccc3c2cc1[N+](=O)[O-]` as the compound, how does the IC50 read?
Its IC50 is 15.1 µM.

For `O=C1C=C(N2CCOCC2)c2cccc3cccc1c23`, which IC50 is on record?
Its IC50 is > 79 µM (inactive).

Which IC50 does the source give for `Cc1nn(Cc2ccc(C(=O)N3CCN(C(=O)c4ccco4)CC3)o2)c(C)c1[N+](=O)[O-]` here?
Its IC50 is > 79 µM (inactive).

`O=C1C2C3C=CC(CC3)C2C(=O)N1c1cccc(Br)c1` (centres undefined) was tested. Which IC50 did it give?
The IC50 was > 79 µM (inactive).

For `Cn1c(C(=O)NCc2cccs2)cc2c(=O)n(C)c3ccccc3c21`, which IC50 is on record?
The IC50 was > 79 µM (inactive).
